Read-outs that look alike come from different tables or passages of the source.
Columns and labels:
[1] = molecular target: His-tagged KRAS G12D protein (Homo sapiens (Human), UniProt P01116, G12D); test: KRAS G12D TR-FRET Assay; type: binding
Method in brief: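 Each incubation ran at room temperature: enzyme with compound for 30 minutes, peptide for one hour, and detection reagents (0.4 nM europium anti-6×His, 5 nM streptavidin-d2) for one hour more. Protein and peptide stocks were each diluted to 20 nM before addition.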

[2] = molecular target: GDP-bound KRAS protein (aa 1-169), containing both G12D and C118A amino acid substitutions (Homo sapiens (Human), UniProt P01116, C118A/G12D); test: KRAS G12D Coupled Nucleotide Exchange Assay; type: biochemical
GDP-bound KRAS protein (aa 1-169), containing both G12D and C118A amino acid substitutions, sequence (P01116 other isoform, or with tags, fused parts or gaps G12D/C118A): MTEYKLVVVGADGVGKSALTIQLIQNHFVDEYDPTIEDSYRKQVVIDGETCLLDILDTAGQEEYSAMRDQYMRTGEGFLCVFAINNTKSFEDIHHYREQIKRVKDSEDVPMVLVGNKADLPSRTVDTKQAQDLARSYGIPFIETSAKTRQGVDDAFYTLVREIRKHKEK

[3] = tested on: Phosphorylation of ERK1/2 in AsPC-1 cells; test: Phospho-ERK1/2 MSD Assay; type: cell-based, human; settings: Homo sapiens, ASPC1, 2 h
Method in brief: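 Read-out: MSD electrochemiluminescent detection of phosphorylated ERK1/2 in whole-cell lysates, fitted to a 4-parameter logistic curve for IC50. Prior to lysis, AsPC-1 cells (25,000 per well) received a 2 h compound dose-response at 37 °C.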

[4] = read-out: KRAS G12D Binding IC50
[5] = read-out: KRAS G12D Coupled Exchange IC50
[6] = read-out: 2 h p-ERK (AsPC-1 cells), IC50
[7] = TR-FRET, read-out: KRAS G12D Binding
[8] = 2 hours compound pre-incubation, read-out: KRAS G12D Coupled Exchange
[9] = read-out: 2 h p-ERK (AsPC-1 cells)

His-tagged KRAS G12D protein, sequence (P01116 other isoform, or with tags, fused parts or gaps G12D): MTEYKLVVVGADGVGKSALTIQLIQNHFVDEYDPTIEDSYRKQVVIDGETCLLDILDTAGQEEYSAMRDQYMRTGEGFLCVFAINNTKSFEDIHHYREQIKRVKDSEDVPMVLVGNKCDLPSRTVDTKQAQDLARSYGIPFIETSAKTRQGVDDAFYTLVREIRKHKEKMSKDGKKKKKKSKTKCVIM

Row | SMILES | IC50 [1, 4] | IC50 [2, 5] | IC50 [3, 6] | IC50 [1, 7] | IC50 [2, 8] | IC50 [3, 9]
1 | Cc1cc2[nH]ncc2c2c1CCC[C@H](F)C(=O)N(C)[C@@H]1CCCN(C1)c1nc(OC[C@@]34CCCN3C[C@H](F)C4)nc3c(F)c-2ncc13 [Example 51, (14S,17R)-14,30-difluoro-24-(((2R,7aS)-2-fluorotetrahydro-1H-pyrrolo[1,2-a]pyrrol-7a(5H)-yl)methoxy)-9,16-dimethyl-5,6,16,21,23,25,29-heptaazahexacyclo[24.3.1.1~17,21~.0~2,10~.0~3,7~.0~22,27~]hentriaconta-1(30),2,4,7,9,22,24,26,28-nonaen-15-one] | 10 nM | 5 nM | 356 nM |  |  | 
2 | Cc1cc2[nH]ncc2c2c1CCC[C@@H](F)C(=O)N(C)[C@@H]1CCCN(C1)c1nc(OC[C@@]34CCCN3C[C@H](F)C4)nc3c(F)c-2ncc13 [Example 52, (14R,17R)-14,30-difluoro-24-(((2R,7aS)-2-fluorotetrahydro-1H-pyrrolo[1,2-a]pyrrol-7a(5H)-yl)methoxy)-9,16-dimethyl-5,6,16,21,23,25,29-heptaazahexacyclo[24.3.1.1~17,21~.0~2,10~.0~3,7~.0~22,27~]hentriaconta-1(30),2,4,7,9,22,24,26,28-nonaen-15-one] | 19 nM | 12 nM | 403 nM |  |  | 
3 | Cc1cc2[nH]ncc2c2c1C[C@H](C)CCOC[C@@H]1CCCN(C1)c1nc(OC[C@@]34CCCN3C[C@H](F)C4)nc3c(F)c-2ncc13 [Example 251, (12S,17R)-30-fluoro-24-(((2R,7aS)-2-fluorotetrahydro-1H-pyrrolo[1,2-a]pyrrol-7a(5H)-yl)methoxy)-9,12-dimethyl-15-oxa-5,6,21,23,25,29-hexaazahexacyclo[24.3.1.1~17,21~.0~2,10~.0~3,7~.0~22,27~]hentriaconta-1(30),2,4,7,9,22,24,26,28-nonaene] | 15 nM | 8 nM | 381 nM |  |  | 
4 | Fc1c2ncc3c(nc(OC[C@@]45CCCN4C[C@H](F)C5)nc13)N1CCOC[C@]3(C1)C[C@H](C3)OCCCCc1c(Cl)cc3[nH]ncc3c1-2 [Example 264, (1R,3R)-10-chloro-33-fluoro-24-(((2R,7aS)-2-fluorotetrahydro-1H-pyrrolo[1,2-a]pyrrol-7a(5H)-yl)methoxy)-4,30-dioxa-13,14,19,23,25,27-hexaazaheptacyclo[25.4.1.1~1,3~.1~18,22~.0~9,17~.0~12,16~.0~21,26~]tetratriaconta-9,11,14,16,18(33),19,21,23,25-nonaene] | 38 nM | 24 nM | 368 nM |  |  | 
5 | Fc1c2ncc3c(nc(OC[C@@]45CCCN4C[C@H](F)C5)nc13)N1CCC[C@H](C1)Cn1ncc(n1)[C@@H]1C[C@@H]1c1c(Cl)cc3[nH]ncc3c1-2 (mixture of isomers) [Example 383] |  |  |  | 13 nM | 8 nM | 75.4 nM
6 | O=C1COCCCc2c(Cl)cc3[nH]ncc3c2-c2ncc3c(nc(OC[C@@]45CCCN4C[C@H](F)C5)nc3c2F)N2CCC[C@H](C2)O1 [Example 37, (18R)-9-Chloro-31-fluoro-25-(((2R,7aS)-2-fluorotetrahydro-1H-pyrrolo[1,2-a]pyrrol-7a(5H)-yl)methoxy)-14,17-dioxa-5,6,22,24,26,30-hexaazahexacyclo[25.3.1.1˜18,22˜.0˜2,10˜.0˜3,7˜.0˜23,28˜]dotriaconta-1(31),2,4,7,9,23,25,27,29-nonaen-16-one bis(2,2,2-trifluoroacetate)] | 5 nM | 4 nM | 58 nM |  |  | 
7 | Fc1c2ncc3c(nc(OC[C@@]45CCCN4C[C@H](F)C5)nc13)N1CCO[C@@H](COCC(F)(F)CCc3c(Cl)cc4[nH]ncc4c3-2)C1 [Example 150, (17R)-9-Chloro-13,13,30-trifluoro-24-(((2R,7aS)-2-fluorotetrahydro-1H-pyrrolo[1,2-a]pyrrol-7a(5H)-yl)methoxy)-15,18-dioxa-5,6,21,23,25,29 hexaazahexacyclo[24.3.1.1˜17,21˜.0˜2,10˜.0˜3,7˜.0˜22,27˜]hentriaconta-1(30),2,4,7,9,22,24,26,28-nonaene] | 33 nM | 17 nM | 306 nM |  |  | 
8 | Cc1cc2[nH]ncc2c2c1CCCOC(=O)OC1CC[C@@H]3CC[C@H]1N3c1nc(OC[C@@]34CCCN3C[C@H](F)C4)nc3c(F)c-2ncc13 (racemic) [Example 96] | 67 nM | 54 nM | 1380 nM |  |  | 
9 | Cc1c2ncc3c(nc(OCC4CN(C)CCO4)nc13)N1CCC[C@](C)(C1)NC(=O)CCCc1c(F)ccc3cc(O)cc-2c13 (mixture of isomers) [Example 24] | 20 nM | 18 nM | 1140 nM |  |  | 
10 | O=C1N[C@@H]2CCCCN(C2)c2nc(OC[C@@]34CCCN3C[C@H](F)C4)nc3c(F)c(ncc23)-c2c(c(Cl)cc3[nH]ncc23)CCCCO1 [Example 291, (27R)-18-chloro-33-fluoro-4-(((2R,7aS)-2-fluorotetrahydro-1H-pyrrolo[1,2-a]pyrrol-7a(5H)-yl)methoxy)-24-oxa-1,3,5,9,14,15,26-heptaazahexacyclo[25.4.1.1~6,10~.0~2,7~.0~11,19~.0~12,16~]tritriaconta-2,4,6(33),7,9,11,13,16,18-nonaen-25-one] | 26 nM | 5 nM | 1230 nM |  |  | 
11 | O=C1OCCc2cccc3cccc(c23)-c2ncc3c(nc(OC[C@@]45CCCN4C[C@H](F)C5)nc3c2F)N2CCOC[C@H](C2)O1 [Example 201, (16S)-32-fluoro-8-(((2R,7aS)-2-fluorotetrahydro-1H-pyrrolo[1,2-a]pyrrol-7a(5H)-yl)methoxy)-14,17,19-trioxa-3,7,9,11-tetraazahexacyclo[20.7.1.1~2,6~.1~11,16~.0~5,10~.0~26,30~]dotriaconta-1(29),2(32),3,5,7,9,22,24,26(30),27-decaen-18-one] | 9 nM | 8 nM | 171 nM |  |  | 
12 | CN1CCC(Oc2nc3c4cnc(c(F)c4n2)-c2c(c(Cl)cc4[nH]ncc24)CCCOC(=O)O[C@@H]2COCCN3C2)CC1.O=C(O)C(F)(F)F [Example 370, (26S)-18-Chloro-32-fluoro-4-((1-methyl-4-piperidinyl)oxy)-23,25,28-trioxa-1,3,5,9,14,15-hexaazahexacyclo[24.4.1.1˜6,10˜.0˜2,7˜.0˜11,19˜.0˜12,16˜]dotriaconta-2,4,6,8,10(32),11,13,16,18-nonaen-24-one trifluoroacetate] | 36 nM | 18 nM | 708 nM |  |  | 
13 | Fc1c2ncc3c(nc(OC[C@@]45CCCN4C[C@H](F)C5)nc13)N1CCCC(Cc3ncn(n3)CCc3c(Cl)cc4[nH]ncc4c3-2)C1 (stereo partly drawn) [Example 232] | 31 nM | 18 nM | 1340 nM |  |  | 
14 | O=C1COCCc2c(Cl)cc3[nH]ncc3c2-c2ncc3c(nc(OC[C@@]45CCCN4C[C@H](F)C5)nc3c2F)N2CCC[C@H](C2)O1 [Example 90, (17R)-9-chloro-30-fluoro-24-(((2R,7aS)-2-fluorotetrahydro-1H-pyrrolo[1,2-a]pyrrol-7a(5H)-yl)methoxy)-13,16-dioxa-5,6,21,23,25,29-hexaazahexacyclo[24.3.1.1~17,21~.0~2,10~.0~3,7~.0~22,27~]hentriaconta-1(30),2,4,7,9,22,24,26,28-nonaen-15-one] | 12 nM | 11 nM | 167 nM |  |  | 
15 | O=C1N[C@H]2CC[C@@H](O)CN(C2)c2nc(OC[C@@]34CCCN3C[C@H](F)C4)nc3c(F)c(ncc23)-c2c(c(Cl)cc3[nH]ncc23)CCCO1 (racemic) [Example 283, (26S,29R)-18-chloro-32-fluoro-4-(((2R,7aS)-2-fluorotetrahydro-1H-pyrrolo[1,2-a]pyrrol-7a(5H)-yl)methoxy)-29-hydroxy-23-oxa-1,3,5,9,14,15,25-heptaazahexacyclo[24.4.1.1~6,10~.0~2,7~.0~11,19~.0~12,16~]dotriaconta-2,4,6(32),7,9,11,13,16,18-nonaen-24-one] | 3270 nM | 1000 nM | 10000 nM |  |  | 
16 | Fc1c2ncc3c(nc(OC[C@@]45CCCN4C[C@H](F)C5)nc13)N1CCC[C@H](C1)c1cnc(o1)CCCc1c(Cl)cc3[nH]ncc3c1-2 [Example 387, (18R)-9-chloro-31-fluoro-25-(((2R,7aS)-2-fluorotetrahydro-1H-pyrrolo[1,2-a]pyrrol-7a(5H)-yl)methoxy)-33-oxa-5,6,15,22,24,26,30-heptaazaheptacyclo[25.3.1.1~14,17~.1~18,22~.0~2,10~.0~3,7~.0~23,28~]tritriaconta-1(31),2,4,7,9,14,16,23,25,27,29-undecaene] |  |  |  | 8 nM | 4 nM | 66.3 nM
17 | Cc1cc2[nH]ncc2c2c1CCOC(=O)OC1CC3(CCCN(C3)c3nc(OC[C@@H]4CCCN4C)nc4c(F)c-2ncc34)C1 [Example 205, (1R,3S)-32-fluoro-10-methyl-24-(((2S)-1-methyl-2-pyrrolidinyl)methoxy)-4,6-dioxa-13,14,19,23,25,27-hexaazaheptacyclo[25.3.1.1~1,3~.1~18,22~.0~9,17~.0~12,16~.0~21,26~]tritriaconta-9,11,14,16,18(32),19,21,23,25-nonaen-5-one] | 11 nM | 6 nM | 36.1 nM |  |  | 

Source: patent US20240294551A1 (AMGEN INC., priority 2022, published 2024)
